Measured values from patent US20240099989A1, “AGENT FOR PREVENTING OR IMPROVING PERIPHERAL NEUROPATHY” (KINKI UNIVERSITY, priority 2021, published 2024).
“Also recorded” adds a separate entry of the source.

Experiments:
[1] = tested on: Peripheral Neuropathy in a Mouse Caused by Oxaliplatin; assay: Cold plate test (10° C.), peripheral neuropathy caused by oxaliplatin; type: in vivo, Balb/c mice
Procedure: The preventive action of xylitol on hyperesthesia that occurs when an anticancer drug, oxaliplatin, was administered was examined. […] Xylitol was orally administered to a mouse simultaneously with the administration of oxaliplatin, and the following tests (cold plate test and von Frey test) were performed. Oxaliplatin is an anticancer drug classified as a platinum-containing drug. In all of the examples described below, a dosage (administered amount) (mg/kg) refers to the weight of the administered substance per kg body weight of the mouse.
Six to seven-week-old female Balb/c mice were used for the tests. All the mice were acclimated for seven days after arrival. Then, the mice were grouped into the following four groups: a control group, a group receiving oxaliplatin, and two groups receiving oxaliplatin and two different doses of xylitol (groups receiving oxaliplatin+xylitol). Each group consisted of nine mice.
On Day 8 of acclimation, the mice in the group receiving oxaliplatin and the groups receiving oxaliplatin+xylitol were intraperitoneally administered with oxaliplatin at a dose of 6 mg/kg. This day was designated as Day 0 of administration. Thereafter, these mice were intraperitoneally administered with oxaliplatin at a daily dose of 6 mg/kg on Day 7 and Day 14.
The mice in a first group receiving oxaliplatin and xylitol were orally administered with xylitol at a dose of 1 mg/kg daily from Day 0. The mice in a second group receiving oxaliplatin and xylitol were orally administered with xylitol at a dose of 5 mg/kg daily from Day 0.
(§1) A cold plate test was performed to examine the effect of xylitol on paresthesia that is caused by a low temperature stimulus. The mice in the four groups described in (1) of the present example (Example 1) were placed on a cold plate set at 10° C., and withdrawal response time (latent time) was measured. It is presumed that a shorter latent time reflects a greater degree of shunning the low temperature stimulus by the cold plate.
Six to seven-week-old female Balb/c mice were used for the tests as with Example 1. All the mice were acclimated for seven days after arrival. Then, the mice were grouped into the following five groups: a control group, a group receiving only oxaliplatin, and three groups receiving oxaliplatin and three different doses of xylitol. Each group consisted of seven mice.
On Day 8 of acclimation, the mice in the groups other than the control group were intraperitoneally administered with oxaliplatin at a dose of 6 mg/kg. This day was designated as the first day of the administration (Day 0). Thereafter, these mice were intraperitoneally administered with oxaliplatin at the same dose on Day 7 and Day 14 for a total of 3 doses.
The mice in a first group receiving oxaliplatin+xylitol were orally administered with xylitol at a dose of 5 mg/kg daily from Day 6 of administration. The mice in a second group receiving oxaliplatin+xylitol were orally administered with xylitol at a dose of 25 mg/kg daily from Day 6 of administration. The mice in a third group receiving oxaliplatin+xylitol were orally administered with xylitol at a dose of 100 mg/kg daily from Day 6 of administration. In this context, “Day 6 of administration” means that the number of days after administration is 6. The same applies hereinafter.
as §1, with “A” for “A cold plate”, “performed on the mice in the five groups described in (1) of the present example (Example 2)” for “performed”, “respective” for “the four”, “groups” for “groups described in (1) of the present example (Example 1)”
Six to seven-week-old female Balb/c mice were used for the tests as with Example 1. All the mice were acclimated for seven days after arrival. […]

[2] = as is well known; except diarrhea no side effects due to overdose observed; cited from earlier work
[3] = 6 mg/kg oxaliplatin + 5 mg/kg test substance orally daily from Day 0 (prevention)
[4] = 6 mg/kg oxaliplatin + 100 mg/kg test substance orally daily from Day 6 (therapy), time course after Day 6

SMILES | withdrawal response time (latent time) [1, 3] | withdrawal response time (latent time) [1, 4] | safety for the human body [2] | withdrawal response time (latent time) ([1]; 6 mg/kg oxaliplatin + 1 mg/kg test substance orally daily from Day 0 (prevention)) | withdrawal response time (latent time) ([1]; 6 mg/kg oxaliplatin + 5 mg/kg orally daily from Day 6, on Day 10, vs group receiving 6 mg/kg oxaliplatin) | withdrawal response time (latent time) ([1]; 6 mg/kg oxaliplatin + 5 mg/kg orally daily from Day 6, on Day 14 and Day 17, vs group receiving 6 mg/kg oxaliplatin) | withdrawal response time (latent time) ([1]; 6 mg/kg oxaliplatin + 5 mg/kg orally daily from Day 6, on Day 21, vs group receiving 6 mg/kg oxaliplatin) | withdrawal response time (latent time) ([1]; 6 mg/kg oxaliplatin + 5 mg/kg test substance orally daily from Day 6 (therapy), time course after Day 6) | withdrawal response time (latent time) ([1]; 6 mg/kg oxaliplatin + 25 mg/kg orally daily from Day 6, on Day 10, vs group receiving 6 mg/kg oxaliplatin) | withdrawal response time (latent time) ([1]; 6 mg/kg oxaliplatin + 25 mg/kg test substance orally daily from Day 6 (therapy), time course after Day 6) | withdrawal response time (latent time) ([1]; 6 mg/kg oxaliplatin + 100 mg/kg orally daily from Day 6, on Day 10, vs group receiving 6 mg/kg oxaliplatin)
OC[C@@H](O)[C@H](O)CO [D-threitol] | approximately similar to that of the control group | tended to become longer from Day 6 onwards; also recorded: significantly longer withdrawal response time | safe for the human body |  |  |  |  |  |  |  | 
OC[C@H](O)[C@H](O)[C@H](O)[C@@H](O)CO [L-talitol] | almost the same data; also recorded: approximately similar to that of the control group | tended to become longer from Day 9 onwards; also recorded: significantly longer withdrawal response time | safe for the human body |  |  |  |  |  |  |  | 
OC[C@@H](O)[C@H](O)[C@@H](O)CO [xylitol] | approximately similar to that of the control group |  | safe for the human body | approximately similar to that of the control group | significantly longer withdrawal response time | no significant difference | significantly longer withdrawal response time | tended to become longer from Day 6 onwards; also recorded: significantly longer withdrawal response time | significantly longer withdrawal response time | tended to become longer from Day 6 onwards; also recorded: increase in the withdrawal response time; also recorded: significantly longer withdrawal response time | significantly longer withdrawal response time
